{"source": "ChEMBL document CHEMBL5042521", "about": "“A Structure-based Design Approach for Generating High Affinity BRD4 D1-Selective Chemical Probes” (J Med Chem, 2022)", "key": {"[1]": {"target": "Bromodomain-containing protein 2 (Homo sapiens, UniProt P25440)", "sequence (P25440 whole entry)": "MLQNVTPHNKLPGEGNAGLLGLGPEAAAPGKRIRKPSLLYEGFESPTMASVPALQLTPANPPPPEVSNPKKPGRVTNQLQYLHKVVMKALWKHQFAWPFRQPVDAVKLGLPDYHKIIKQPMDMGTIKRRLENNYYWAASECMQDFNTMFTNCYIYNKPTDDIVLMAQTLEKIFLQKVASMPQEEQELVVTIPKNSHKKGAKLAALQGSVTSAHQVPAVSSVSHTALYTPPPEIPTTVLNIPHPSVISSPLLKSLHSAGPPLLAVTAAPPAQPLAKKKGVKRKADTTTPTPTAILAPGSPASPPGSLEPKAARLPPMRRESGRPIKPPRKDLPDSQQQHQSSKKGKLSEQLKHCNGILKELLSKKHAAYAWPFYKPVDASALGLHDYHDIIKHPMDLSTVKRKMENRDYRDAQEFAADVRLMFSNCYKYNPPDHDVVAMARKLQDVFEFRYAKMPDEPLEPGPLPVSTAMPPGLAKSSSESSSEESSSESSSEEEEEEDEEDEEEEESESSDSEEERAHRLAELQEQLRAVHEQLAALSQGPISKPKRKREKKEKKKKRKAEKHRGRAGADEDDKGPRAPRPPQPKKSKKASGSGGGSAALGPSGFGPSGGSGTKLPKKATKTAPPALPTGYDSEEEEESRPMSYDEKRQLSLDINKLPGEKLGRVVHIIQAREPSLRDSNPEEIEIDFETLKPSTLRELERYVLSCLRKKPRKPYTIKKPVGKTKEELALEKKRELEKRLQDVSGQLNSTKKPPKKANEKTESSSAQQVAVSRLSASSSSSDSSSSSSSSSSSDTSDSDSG", "description": "Binding affinity to BRD2 D1 (unknown origin) assessed as dissociation constant by isothermal titration calorimetry"}, "[2]": {"target": "Bromodomain-containing protein 4 (Homo sapiens, UniProt O60885)", "description": "Binding affinity to BRD4 D2 (unknown origin) assessed as dissociation constant by isothermal titration calorimetry"}}, "data": [{"smiles": "Cc1ccc(C(C)C)cc1Oc1nccc(-c2c(-c3ccc(C(F)(F)F)cc3)ncn2[C@H]2CCN(CCN(C)C)C2)n1", "values": [{"measurement": "Kd", "setting": "[1]", "value": "Not Active"}, {"measurement": "Kd", "setting": "[2]", "value": "Not Active"}]}, {"smiles": "Cc1ccc(C(C)C)cc1Oc1nccc(-c2c(-c3ccc(C(F)(F)F)cc3)ncn2C2CCN(CCN(C)C)CC2)n1", "values": [{"measurement": "Kd", "setting": "[1]", "value": "Not Active"}, {"measurement": "Kd", "setting": "[2]", "value": "Not Active"}]}]}
